Key:
[1] = Therapeutic index: minimum arrhythmogenic dose / dose active on the coronary output, anaesthetized dogs; type: in vivo, dog; set-up: minimum arrhythmogenic dose: unit: µg/kg; details: dog, in vivo; ratio, anaesthetized dogs, intravenous route; read-out: Arrhythmogenic dose/dose which is active on the coronary output (therapeutic index)
Text: (§1) 5) Therapeutic index The therapeutic index is defined as being the ratio between the minimum arrhythmogenic dose and the dose which increases the basal coronary output by 50% (this dose is referred to hereinbelow as the "dose which is active on the coronary output").

anaesthetized dogs = assay: as above; type: in vivo, dog; set-up: minimum arrhythmogenic dose: unit: µg/kg; details: for ED (50% increase): Canis lupus familiaris, iv, read-out: dose which is active on the coronary output (increases the basal coronary output by 50%); for minimum arrhythmogenic dose: anaesthetized dogs, intravenous route
Text: as §1

[2] = test system: coronary output of anaesthetized dogs; assay: Effect on the coronary output of anaesthetized dogs; type: in vivo, dog; details: intravenous
Description: 4) Effect on the coronary output of anaesthetized dogs
The animals receive increasing doses of compound every 30 minutes via the intravenous route. The effect on the coronary output is evaluated by means of its percentage of maximum variation after each dose.

[3] = test system: conscious, spontaneously hypertensive rats; assay: Hypotensive effect in conscious, spontaneously hypertensive rats; type: in vivo, rat; details: gastric route
Description: 3) Hypotensive effect in conscious, spontaneously hypertensive rats
The animals receive increasing doses of compound every 90 minutes via the gastric route.
The hypotensive effect is evaluated by means of the percentage of maximum reduction of the average arterial pressure after administration of each dose.

isolated rat aorta = assay: Anticalcium activity: antagonism of KCl-mediated contraction of isolated rat aorta; details: KCl 5×10^-2 M.l^-1 contraction, isolated rat thoracic aorta ring
Description: 2) Anticalcium activity by measuring the KCl-mediated antagonism of the contraction of isolated rat aorta
The technique employed uses a ring of arterial vascular tissue taken from rat thoracic aorta and then kept alive in aerated bicarbonated Krebs buffer, and subjected to an initial tension of 2 g. The introduction of potassium chloride KCl (in a volume of 300 μl) at a concentration 5×10^-2 M.l^-1 into the Krebs buffer bath generates a sustained contraction whose amplitude (isometric tension) is antagonized by the addition of a solution of the test compound of increasing concentrations, each addition being made every 5 minutes. The molar concentration of the test compound which reduces by 50% the maximum contraction observed in KCl is then calculated. This concentration is the 50% inhibitory concentration (or IC50).

[4] = molecular target: T1, DHP sites of rat cardiac ventricles (Rattus norvegicus, UniProt P22002); assay: Anticalcium activity: affinity for the DHP sites of rat cardiac ventricles, displacement of (+)-[3H]-PN 200-110; type: binding; details: displacement of (+)-[3H]-PN 200-110, rat cardiac ventricle membranes, 30 minutes, 30° C.
T1 construct: membrane preparation of the receptors, this preparation being obtained after dissecting the ventricles; from tissue; host or cells: rat cardiac ventricles (membrane preparation)
T1 sequence (P22002 whole entry, other chains not shown): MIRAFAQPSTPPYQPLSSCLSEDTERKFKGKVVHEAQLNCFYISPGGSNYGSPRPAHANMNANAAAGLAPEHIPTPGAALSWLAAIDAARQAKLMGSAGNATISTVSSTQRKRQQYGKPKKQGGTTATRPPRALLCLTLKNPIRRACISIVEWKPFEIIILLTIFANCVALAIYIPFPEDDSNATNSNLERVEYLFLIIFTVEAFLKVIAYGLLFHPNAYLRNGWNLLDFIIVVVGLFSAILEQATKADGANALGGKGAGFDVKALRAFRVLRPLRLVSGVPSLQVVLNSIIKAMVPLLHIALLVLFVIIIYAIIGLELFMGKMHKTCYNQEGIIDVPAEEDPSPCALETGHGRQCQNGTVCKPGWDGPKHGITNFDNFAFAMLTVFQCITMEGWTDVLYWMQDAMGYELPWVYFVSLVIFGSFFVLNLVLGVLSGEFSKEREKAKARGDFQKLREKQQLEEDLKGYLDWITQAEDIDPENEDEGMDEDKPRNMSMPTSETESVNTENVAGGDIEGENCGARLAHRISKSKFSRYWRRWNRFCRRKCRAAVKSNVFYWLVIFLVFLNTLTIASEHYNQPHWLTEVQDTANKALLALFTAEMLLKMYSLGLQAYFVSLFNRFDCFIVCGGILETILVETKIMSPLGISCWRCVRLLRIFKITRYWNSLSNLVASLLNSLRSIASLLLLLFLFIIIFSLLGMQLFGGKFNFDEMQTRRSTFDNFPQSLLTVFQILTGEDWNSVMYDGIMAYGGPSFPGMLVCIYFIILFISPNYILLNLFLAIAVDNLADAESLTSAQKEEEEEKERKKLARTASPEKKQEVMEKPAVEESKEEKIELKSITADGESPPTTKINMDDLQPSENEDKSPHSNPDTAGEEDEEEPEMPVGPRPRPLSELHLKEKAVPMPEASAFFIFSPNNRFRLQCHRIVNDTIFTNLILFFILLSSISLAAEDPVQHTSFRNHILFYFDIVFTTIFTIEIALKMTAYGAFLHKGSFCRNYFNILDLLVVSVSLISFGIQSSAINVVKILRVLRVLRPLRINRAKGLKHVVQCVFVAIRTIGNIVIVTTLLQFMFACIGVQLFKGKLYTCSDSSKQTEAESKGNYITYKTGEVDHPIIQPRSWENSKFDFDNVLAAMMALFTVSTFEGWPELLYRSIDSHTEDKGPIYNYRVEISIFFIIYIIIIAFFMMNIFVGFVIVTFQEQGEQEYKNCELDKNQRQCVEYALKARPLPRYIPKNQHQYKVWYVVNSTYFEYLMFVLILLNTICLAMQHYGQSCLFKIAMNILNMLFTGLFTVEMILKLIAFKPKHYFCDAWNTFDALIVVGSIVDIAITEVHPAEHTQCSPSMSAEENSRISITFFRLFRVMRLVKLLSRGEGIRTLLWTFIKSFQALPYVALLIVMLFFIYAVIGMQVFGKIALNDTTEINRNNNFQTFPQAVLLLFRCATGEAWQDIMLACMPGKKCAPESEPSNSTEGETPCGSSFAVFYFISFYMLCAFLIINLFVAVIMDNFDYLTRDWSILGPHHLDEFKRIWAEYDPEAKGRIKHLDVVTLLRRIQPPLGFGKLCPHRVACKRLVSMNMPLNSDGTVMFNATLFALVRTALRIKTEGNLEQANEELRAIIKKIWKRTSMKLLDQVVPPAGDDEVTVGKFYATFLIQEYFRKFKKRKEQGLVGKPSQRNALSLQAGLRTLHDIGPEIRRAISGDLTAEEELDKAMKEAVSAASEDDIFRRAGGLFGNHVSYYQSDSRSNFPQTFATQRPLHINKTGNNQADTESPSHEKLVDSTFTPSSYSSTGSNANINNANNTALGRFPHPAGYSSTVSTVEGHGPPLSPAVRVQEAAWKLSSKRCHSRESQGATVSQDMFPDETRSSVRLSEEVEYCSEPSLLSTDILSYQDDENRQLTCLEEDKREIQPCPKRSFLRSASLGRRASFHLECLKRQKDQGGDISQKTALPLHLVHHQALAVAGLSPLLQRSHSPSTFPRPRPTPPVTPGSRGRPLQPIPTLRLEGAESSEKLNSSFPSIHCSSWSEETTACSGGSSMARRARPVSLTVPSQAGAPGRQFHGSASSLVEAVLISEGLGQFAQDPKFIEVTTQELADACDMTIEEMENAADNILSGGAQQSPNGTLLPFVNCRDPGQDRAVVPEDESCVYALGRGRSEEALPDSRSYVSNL
T1 sequence (P54290 25-944 partner limits assumed, other chains not shown): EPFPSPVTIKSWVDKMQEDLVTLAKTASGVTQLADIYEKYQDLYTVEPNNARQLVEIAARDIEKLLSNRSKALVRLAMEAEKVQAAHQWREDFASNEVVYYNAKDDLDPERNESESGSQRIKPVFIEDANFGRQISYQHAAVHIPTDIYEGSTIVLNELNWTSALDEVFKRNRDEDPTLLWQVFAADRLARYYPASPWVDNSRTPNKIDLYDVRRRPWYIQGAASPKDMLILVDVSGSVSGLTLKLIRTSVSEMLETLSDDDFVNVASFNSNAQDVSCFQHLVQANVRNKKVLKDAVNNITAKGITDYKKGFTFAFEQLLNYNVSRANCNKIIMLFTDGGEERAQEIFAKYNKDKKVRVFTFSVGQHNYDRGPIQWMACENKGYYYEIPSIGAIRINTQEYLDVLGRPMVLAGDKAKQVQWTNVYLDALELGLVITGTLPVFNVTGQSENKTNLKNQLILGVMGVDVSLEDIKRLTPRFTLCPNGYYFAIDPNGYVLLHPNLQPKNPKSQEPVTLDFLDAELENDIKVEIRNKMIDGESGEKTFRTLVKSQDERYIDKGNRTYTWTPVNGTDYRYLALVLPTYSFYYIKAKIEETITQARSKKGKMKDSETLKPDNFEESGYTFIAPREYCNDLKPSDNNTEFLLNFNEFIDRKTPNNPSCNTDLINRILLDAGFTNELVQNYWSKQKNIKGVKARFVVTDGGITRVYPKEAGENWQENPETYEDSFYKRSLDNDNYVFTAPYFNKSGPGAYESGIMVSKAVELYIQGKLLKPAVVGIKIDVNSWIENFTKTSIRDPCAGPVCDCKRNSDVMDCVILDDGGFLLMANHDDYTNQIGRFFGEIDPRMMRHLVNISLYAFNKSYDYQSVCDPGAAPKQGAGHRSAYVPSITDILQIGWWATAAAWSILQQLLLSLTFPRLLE
T1 sequence (P54290 945-1091 partner limits assumed, other chains not shown): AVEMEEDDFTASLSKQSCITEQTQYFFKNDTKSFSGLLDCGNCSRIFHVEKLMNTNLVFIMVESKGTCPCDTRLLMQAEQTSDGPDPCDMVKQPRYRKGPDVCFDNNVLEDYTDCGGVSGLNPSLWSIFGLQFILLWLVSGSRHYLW
Description: 1) Anticalcium activity by measuring the affinity for the DHP sites of rat cardiac ventricles
These membrane preparations are placed in contact with the specific radioactive ligand (+)-[^3 H]-PN 200-110 and the test compound, at different concentrations. The suspension is stirred for 30 minutes at a temperature of 30° C. The reaction is then stopped by filtration using a Harvester-type system. The filter is introduced into a counting flask containing scintillation liquid. The radioactivity present on each filter is then measured by counting in a β-counter with liquid scintillation.
The intensity of the binding to the membrane receptors is defined by the (molar) concentration of the test compound which is needed to displace 50% of the amount of the specific ligand (+)-[^3 H]-PN 200-110 prebound to the DHP sites. This concentration is the IC50 concentration.

[5] = dose +10 μg/kg, increasing doses every 30 minutes
[6] = dose +20 μg/kg, increasing doses every 30 minutes
[7] = dose +40 μg/kg, increasing doses every 30 minutes
[8] = dose +80 μg/kg, increasing doses every 30 minutes
[9] = dose +160 μg/kg, increasing doses every 30 minutes
[10] = dose +320 μg/kg, increasing doses every 30 minutes
[11] = dose +10 mg/kg, increasing doses every 90 minutes
[12] = dose +30 mg/kg, increasing doses every 90 minutes

Row | Structure (SMILES) | selectivity ratio [1] | ED (50% increase) (anaesthetized dogs) | minimum arrhythmogenic dose (anaesthetized dogs) | percentage of maximum variation of the coronary output ([2]; dose 5 μg/kg) | percentage of maximum variation of the coronary output [2, 5] | percentage of maximum variation of the coronary output [2, 6] | percentage of maximum variation of the coronary output [2, 7] | percentage of maximum variation of the coronary output [2, 8] | percentage of maximum variation of the coronary output [2, 9] | percentage of maximum variation of the coronary output [2, 10] | percentage of maximum reduction of the average arterial pressure ([3]; dose 3 mg/kg) | percentage of maximum reduction of the average arterial pressure [3, 11] | percentage of maximum reduction of the average arterial pressure [3, 12] | IC50 (isolated rat aorta) | IC50 [4]
1 | COC(=O)C1=C(C)NC(C)=C(C(=O)O[C@@H]2CCCN(CCCCC(=O)c3ccc[nH]3)C2)[C@H]1c1cccc([N+](=O)[O-])c1 [Example 3, (4S,3'R)(-)N-[5-(1H-pyrrol-2-yl)-5-oxopentyl]piperid-3'-yl 2,6-dimethyl-4-(3-nitrophenyl)-5-methoxycarbonyl-1,4-dihydropyridine-3-caroxylate] | 32 | 0.02 mg/kg | 640 | +7% | +30% | +59% | +76% | +84% | +84% | +59% | -12% | -21% | -54% | 160 nM | 
2 | COC(=O)C1=C(C)NC(C)=C(C(=O)O[C@@H]2CCN(CCCCC(=O)c3c(OC)cc(OC)cc3OC)C2)[C@H]1c1cccc([N+](=O)[O-])c1 [Example 2, (4S,3'R)(-)N-[4-(2,4,6-trimethoxybenzoyl)butyl]pyrrolidin-3'-yl 2,6-dimethyl-4-(3-nitrophenyl)-5-methoxycarbonyl-1,4-dihydropyridine-3-carboxylate] | 16 | 0.04 mg/kg | 640 | +16% | +14% | +34% | +78% | +68% | +59% | +33% |  |  |  |  | 7.8 nM
3 | COC(=O)C1=C(C)NC(C)=C(C(=O)O[C@@H]2CCN(CCCC(=O)c3c(OC)cc(OC)cc3OC)C2)[C@H]1c1cccc([N+](=O)[O-])c1 [Example B, reference compound] | 1 | 0.64 mg/kg | 640 |  |  |  |  |  |  |  |  |  |  |  | 
4 | COC(=O)C1=C(C)NC(C)=C(C(=O)O[C@@H]2CCCN(CCCCC(=O)c3cccs3)C2)[C@H]1c1cccc([N+](=O)[O-])c1 [Example 1, (4S,3'R)(-)N-[4-(2-thienoyl)-butyl]piperid-3'-yl 2,6-dimethyl-4-(3-nitrophenyl)-5-methoxycarbonyl-1,4-dihydropyridine-3-carboxylate] | 32 | 0.02 mg/kg | 640 | 12% | +28% | +56% | +72% | +81% | +67% | +64% | 0% | -22% | -45% | 130 nM | 15 nM
5 | COC(=O)C1=C(C)NC(C)=C(C(=O)O[C@@H]2CCCN(CCCC(=O)c3cccs3)C2)[C@H]1c1cccc([N+](=O)[O-])c1 [Example A, reference compound] | 1 | 0.64 mg/kg | 640 |  |  |  |  |  |  |  |  |  |  |  | 

Reference: patent US6166035A, “1,4-dihydropyridine derivatives and their use in therapy” (Laboratoire L. Lafon, priority 1997, dated 2000)
